Consider 20 compounds from patent US20190119282A1, “IMIDAZOPYRIDAZINES USEFUL AS INHIBITORS OF THE PAR-2 SIGNALING PATHWAY” (Vertex Pharmaceuticals Incorporated, priority 2013, published 2019).

The structures appear in SMILES notation.

The target of experiment [1] is T1, PAR2 (HT-29 cells, trypsin activation) (Homo sapiens, UniProt P55085).
T1 construct: host or cells: HT-29 cells
T1 sequence (P55085 26-397): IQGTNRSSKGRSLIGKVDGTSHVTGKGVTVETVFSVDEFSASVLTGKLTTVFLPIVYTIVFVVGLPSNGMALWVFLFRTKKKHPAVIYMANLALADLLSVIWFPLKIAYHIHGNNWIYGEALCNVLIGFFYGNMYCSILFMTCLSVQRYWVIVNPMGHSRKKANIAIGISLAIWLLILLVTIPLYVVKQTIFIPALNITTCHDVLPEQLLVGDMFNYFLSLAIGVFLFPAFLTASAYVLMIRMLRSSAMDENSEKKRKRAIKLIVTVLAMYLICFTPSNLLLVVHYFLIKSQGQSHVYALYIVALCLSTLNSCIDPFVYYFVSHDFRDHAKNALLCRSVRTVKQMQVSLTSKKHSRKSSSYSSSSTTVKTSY
Kind of experiment: Ca FLIPR TETRA assay, ANTAGONIST mode, stimulation with 3.1 U/mL trypsin. The settings on record: HT-29 cells. In kind it is cell-based. As for the experimental part: (§1) Example 60: Protocol for Testing PAR2 Compounds in ANTAGONIST Mode Using the Ca FLIPR^TETRA Assay (384 Well)
(§2) 23000 HT-29 cells (ATCC# HTB-38) were plated in 384-well black, transparent-flat bottom plates and incubated in 25 uL of 1% FBS/McCoy's media ON at 37° C. under an atmosphere of 5% CO2. The following day, 25 uL FLIPR calcium 5 Molecular Devices assay reagent (Cat: R-8186) was added. Plates were incubated at 37° C. and r. t. for 45 min and 15 min, respectively. Compounds dilutions were prepared in 100% DMSO using a Biomek FX and diluted 20-fold in HBSS and then 5.5 uL was added directly to the cells by the FLIPR^TETRA (10× dilution) using FLIPR Tetra Pipette tips, black, non-sterile, 384 Molecular Devices (Cat: 9000-0764).
(§3) A first read was performed to determine whether the test compounds on their own can activate Ca2+ responses.
(§4) The cells were incubated with the compounds for 30 min at r. t. and then read in ANTAGONIST mode in the same plate by stimulating with 6.2 uL of a fixed concentration of the activator: final concentrations: 8 μM SLIGKV, 1 U/mL Thrombin, 3.1 U/mL trypsin, or 0.6 μM UTP.

Experiment [2] concerns the target T2, PAR2 (HT-29 cells, SLIGKV activation) (Homo sapiens, UniProt P55085).
T2 construct: host or cells: HT-29 cells
T2 sequence (P55085 26-397): T1 sequence (P55085 26-397)
In words: Ca FLIPR TETRA assay, ANTAGONIST mode, stimulation with 8 μM SLIGKV. In kind it is cell-based. The settings on record: for IC50: HT-29 cells. The method, then:
as §1, §2, §3, §4

The mark [3] stands for this setting: Table 8, reported compounds of WO2005/030773, JP2003286171, JP2004170323.

In the case of `C[C@H]1CN(C(=O)c2cn3nc(-c4ccc(F)cc4)c(C(F)(F)F)cc3n2)CCN1C(=O)OCc1ccccc1` [Compound I-580], in experiment [1] (Table 6, @ 50 (μM), 3.1 U/mL trypsin), the “Trypsin % @ 50” value was 48% @ 50. For the same compound, the half-inhibitory concentration (IC50) (as a rule, the point on the concentration scale where inhibition reaches its midpoint) in experiment [2] (Table 6, 8 μM SLIGKV) was determined as 23 µM.
For `O=C(c1cn2nc(-c3ccc(F)cc3)cc(C(F)(F)F)c2n1)N1CCN(Cc2ccccn2)CC1` [Compound I-581], the half-maximal inhibitory concentration (IC50) in experiment [1] (Table 6, 3.1 U/mL trypsin) was found to be 46 µM; in experiment [2] (Table 6, 8 μM SLIGKV), 50 µM.
Consider `N#Cc1cccnc1N1CCN(C(=O)c2cn3nc(-c4ccc(F)cc4)cc(C(F)(F)F)c3n2)CC1` [Compound I-582], for which the IC50 is > 50 µM in experiment [1] (Table 6, 3.1 U/mL trypsin) and 50 µM in experiment [2] (Table 6, 8 μM SLIGKV).
With `O=C(c1cn2nc(-c3ccc(F)cc3)cc(C(F)(F)F)c2n1)N1CCN(CCn2ccnc2)CC1` [Compound I-583], the IC50 is > 50 µM in experiment [1] (Table 6, 3.1 U/mL trypsin) and 23 µM in experiment [2] (Table 6, 8 μM SLIGKV).
Turning to `CCC(=O)N1CCN(C(=O)c2cn3nc(-c4ccc(F)cc4)cc(C(F)(F)F)c3n2)CC1` [Compound I-584], the IC50 came out at 2 µM in experiment [1] (Table 6, 3.1 U/mL trypsin) and 22 µM in experiment [2] (Table 6, 8 μM SLIGKV).
Take `Cc1cc(-c2ccc(F)cc2)nn2cc(C(=O)N3CCC4(COC4)C3)nc12` [Compound I-585]: the IC50 came to 24 µM in experiment [1] (Table 6, 3.1 U/mL trypsin) and 27 µM in experiment [2] (Table 6, 8 μM SLIGKV).
As to `Cc1cc(-c2ccc(F)cc2)nn2cc(C(=O)N3CCCC4(COC4)C3)nc12` [Compound I-586], the IC50 in experiment [1] (Table 6, 3.1 U/mL trypsin) was found to be 19 µM; in experiment [2] (Table 6, 8 μM SLIGKV), 13 µM.
Consider `CC(C)c1cc(-c2ccc(F)cc2)nn2cc(C(=O)N3CCCCC34COC4)nc12` [Compound I-587], for which the IC50 in experiment [1] (Table 6, 3.1 U/mL trypsin) came out at 19 µM; in experiment [2] (Table 6, 8 μM SLIGKV) it was 25 µM.
As for `CC(C)c1cc(Cl)nn2cc(C(=O)N3CCN(C(=O)C4(O)CCOCC4)CC3(C)C)nc12` [Compound I-588], the half-maximal inhibitory concentration (IC50) was > 50 µM in experiment [1] (Table 6, 3.1 U/mL trypsin) and 37 µM in experiment [2] (Table 6, 8 μM SLIGKV).
Regarding `CC(C)c1cc(Cl)nn2cc(C(=O)N3CCN(C(=O)C4(O)CCC4)CC3(C)C)nc12` [Compound I-589], the half-maximal inhibitory concentration (IC50) in experiment [1] (Table 6, 3.1 U/mL trypsin) was > 50 µM; in experiment [2] (Table 6, 8 μM SLIGKV), 27 µM.
As to `CC(C)c1cc(C2CCOCC2)nn2cc(C(=O)N3CCN(C(=O)C4(O)CCC4)CC3(C)C)nc12` [Compound I-590], the 50% inhibitory concentration (IC50) in experiment [1] (Table 6, 3.1 U/mL trypsin) is > 50 µM; in experiment [2] (Table 6, 8 μM SLIGKV), 20 µM.
The like results for `CC(C)c1cc(-c2ccc(F)cc2)nn2cc(C(=O)N3CCNC(=O)C3)nc12` [Compound I-591] were, in that order, 41 µM and 17 µM.
For the compound `CCOC(=O)C1CCCCN1C(=O)c1cc2nc(-c3ccc(Cl)cc3)cc(C(F)(F)F)n2n1` (stereo not shown) [Compound P-592, reference compound], the values for the 50% inhibitory concentration (IC50) in experiment [1] (setting [3]) and in experiment [2] (setting [3]) were 0.13 µM and 0.057 µM, respectively.
As for `O=C(c1cc2nc(-c3ccc(Cl)cc3)cc(C(F)(F)F)n2n1)N1CCCCC1` [Compound P-593, reference compound], in experiment [1] (setting [3]), the IC50 is > 50 µM. The “SLIGKV % @ 50 μM” value in experiment [2] (Table 8, @ 50 μM, reported prior-art compounds) is reported as 67% @ 50 μM.
As for `O=C(c1cc2nc(-c3ccccc3)cc(C(F)(F)F)n2n1)N1CCCCC1` [Compound P-594, reference compound], the values for the IC50 in experiment [1] (setting [3]) and in experiment [2] (setting [3]) were 28 µM and 4.67 µM, respectively.
Regarding `CC1CCCCN1C(=O)c1cc2nc(-c3ccccc3)cc(C(F)(F)F)n2n1` (stereo not shown) [Compound P-595, reference compound], the results for the 50% inhibitory concentration (IC50) in experiment [1] (setting [3]) and in experiment [2] (setting [3]) were 19.2 µM and 1.73 µM, respectively.
For the compound `O=C(c1ccccc1)N1CCN(C(=O)c2cc3nc(-c4ccccc4)cc(C(F)(F)F)n3n2)CC1` [Compound P-596, reference compound], the results for the IC50 in experiment [1] (setting [3]) and in experiment [2] (setting [3]) were > 50 µM and 10.8 µM, respectively.
Take `CN(CCO)C(=O)c1cc2nc(-c3ccc(Cl)cc3)cc(C(F)(F)F)n2n1` [Compound P-597, reference compound]: the IC50 in experiment [1] (setting [3]) was determined as 27 µM; in experiment [2] (setting [3]), 17.4 µM.
`CC1CCCCN1C(=O)c1cc2nc(-c3ccc(Cl)cc3)cc(C(F)(F)F)n2n1` (stereo not shown) [Compound P-598, reference compound]: the IC50 in experiment [1] (setting [3]) and in experiment [2] (setting [3]) was > 50 µM each time.
In the case of `O=C(c1cc2nc(-c3ccc(Cl)cc3)cc(C(F)(F)F)n2n1)N1CCCCCC1` [Compound P-599, reference compound], the half-maximal inhibitory concentration (IC50) was > 50 µM in experiment [1] (setting [3]) and 9.81 µM in experiment [2] (setting [3]).
